Like-named read-outs stand apart in the source and are kept apart here.
Columns and labels:
[1] = system: replicon cells (1b-Con1); assay: Replicon activity assay (1b-Con1); format: cell-based, HCV; conditions: Hepatitis C virus, 72 h, three days post-dosing
[2] = system: replicon cells (1b-Con1); assay: Cytotoxicity MTS assay in replicon cells; conditions: CC50, MTS assay, three days post dosing
[3] = system: HCV replicon (1b) cells; assay: Cell-based HCV replicon assay
Experimental: To measure cell-based anti-HCV activity of selected compounds of the present invention, replicon cells were seeded at 5000 cells/well in 96-well collagen I-coated Nunc plates in the presence of the test compound. […]. Cells were harvested on day 3 by the addition of 1× cell lysis buffer (Ambion cat #8721). The replicon RNA level was measured using real time PCR (Taqman assay). The amplicon was located in 5B. The PCR primers were: 5B.2F, […] (SEQ ID. NO. 1); 5B.2R, […] (SEQ ID. NO. 2); the probe sequence was FAM-labeled […] (SEQ ID. NO. 3). GAPDH RNA was used as endogenous control and was amplified in the same reaction as NS5B (multiplex PCR) using primers and VIC-labeled probe recommended by the manufacturer (PE Applied Biosystem). The real-time RT-PCR reactions were run on ABI PRISM 7900HT Sequence Detection System using the following program: 48° C. for 30 minutes, 95° C. for 10 minutes, 40 cycles of 95° C. for 15 sec, 60° C. for 1 minute. The ΔCT values (CT5B-CTGAPDH) were plotted against the concentration of test compound and fitted to the sigmoid dose-response model using XLfit4 (MDL). […]; Alternatively, to quantitate the absolute amount of replicon RNA, a standard curve was established by including serially diluted T7 transcripts of replicon RNA in the Taqman assay. All Taqman reagents were from PE Applied Biosystems. Such an assay procedure was described in detail in e.g. Malcolm et al., Antimicrobial Agents and Chemotherapy 50: 1013-1020 (2006).

[4] = Hepatitis C virus, 72 h, replicon RNA level by real time PCR, cells harvested on day 3
[5] = replicon RNA level by real time PCR, cells harvested on day 3

CC(C)OC(=O)[C@H](C)NP(=O)(OC[C@H]1O[C@@H](n2ccc(N)nc2=O)[C@](C)(N)C1O)Oc1ccccc1 (stereo partly drawn)
EC50 [1]: 5.5 µM | Cytotoxicity [2]: >100 µM

C#C[C@]1(C)[C@H](O)[C@@H](COP(=O)(N[C@@H](C)C(=O)OC(C)C)Oc2ccccc2)O[C@H]1n1ccc(=O)[nH]c1=O (stereo partly drawn)
EC50 [1]: 2.3 µM | Cytotoxicity [2]: >100 µM

COc1nc(N)nc2c1ncn2[C@@H]1O[C@H](COP(=O)(N[C@@H](C)C(=O)OCC(C)(C)C)Oc2ccccc2)C(O)[C@@]1(C)N (stereo partly drawn)
EC50 [1]: 0.9 µM | Cytotoxicity [2]: >100 µM

C[C@H](NP(=O)(OC[C@H]1O[C@@H](n2ccc(=O)[nH]c2=O)[C@](C)(N)C1O)Oc1ccccc1)C(=O)OCC(C)(C)C (stereo partly drawn)
EC50 [1]: 0.7 µM | Cytotoxicity [2]: >100 µM

C[C@H](NP(=O)(OC[C@H]1O[C@@H](n2ccc(N)nc2=O)[C@](C)(N)C1O)Oc1ccccc1)C(=O)OCC(C)(C)C (stereo partly drawn)
EC50 [1]: 4.4 µM | Cytotoxicity [2]: >100 µM

CC(C)COC(=O)[C@H](C)NP(=O)(OC[C@H]1O[C@@H](n2ccc(N)nc2=O)[C@](C)(N)[C@@H]1O)Oc1ccccc1 (stereo partly drawn)
EC50 [1]: 6.6 µM | Cytotoxicity [2]: 50 µM

CCOc1nc(N)nc2c1ncn2[C@@H]1O[C@H](COP(=O)(N[C@@H](C)C(=O)OC)Oc2ccccc2)C(O)[C@@]1(C)N (single isomer, unassigned) [Compound 21]
EC50 [3, 4]: 2.6 µM

COc1nc(N)nc2c1ncn2[C@@H]1O[C@H](COP(=O)(N[C@@H](C)C(=O)OC(C)C)Oc2ccccc2)C(O)[C@@]1(C)N (single isomer, unassigned) [Compound 22]
EC50 [3, 5]: 2.6 µM

COc1nc(N)nc2c1ncn2[C@@H]1O[C@H](COP(=O)(N[C@@H](C)C(=O)OC(C)C)Oc2ccccc2)C(O)[C@@]1(C)N (single isomer, unassigned) [Compound 23]
EC50 [3, 5]: > 100 µM

CCOC(=O)[C@H](C)NP(=O)(OC[C@H]1O[C@@H](n2cnc3c(OC)nc(N)nc32)[C@](C)(N)C1O)Oc1ccccc1 (single isomer, unassigned) [Compound 28]
EC50 [3, 4]: 0.1 µM

CCOC(=O)[C@H](C)NP(=O)(OC[C@H]1O[C@@H](n2cnc3c(OC)nc(N)nc32)[C@](C)(N)C1O)Oc1ccccc1 (single isomer, unassigned) [Compound 29]
EC50 [3, 5]: 0.1 µM

COc1nc(N)nc2c1ncn2[C@@H]1O[C@H](COP(=O)(N[C@@H](C)C(=O)OCC(C)(C)C)Oc2ccccc2)C(O)[C@@]1(C)N (single isomer, unassigned) [Compound 52]
EC50 [3, 5]: 0.9 µM

COc1nc(N)nc2c1ncn2[C@@H]1O[C@H](COP(=O)(N[C@@H](C)C(=O)OCC(C)(C)C)Oc2ccccc2)C(O)[C@@]1(C)N (single isomer, unassigned) [Compound 53]
EC50 [3, 5]: 2.7 µM

CCOc1nc(N)nc2c1ncn2[C@@H]1O[C@H](COP(=O)(N[C@@H](C)C(=O)OCC(C)(C)C)Oc2ccccc2)C(O)[C@@]1(C)N (single isomer, unassigned) [Compound 54]
EC50 [3, 5]: 1.5 µM

CCOc1nc(N)nc2c1ncn2[C@@H]1O[C@H](COP(=O)(N[C@@H](C)C(=O)OCC(C)(C)C)Oc2ccccc2)C(O)[C@@]1(C)N (single isomer, unassigned) [Compound 55]
EC50 [3, 5]: 3.1 µM

C[C@H](NP(=O)(OC[C@H]1O[C@@H](n2ccc(=O)[nH]c2=O)[C@](C)(N)C1O)Oc1ccccc1)C(=O)OCC(C)(C)C (single isomer, unassigned) [Compound 56]
EC50 [3, 5]: 0.7 µM

C[C@H](NP(=O)(OC[C@H]1O[C@@H](n2ccc(=O)[nH]c2=O)[C@](C)(N)C1O)Oc1ccccc1)C(=O)OCC(C)(C)C (single isomer, unassigned) [Compound 57]
EC50 [3, 5]: 9.9 µM

C[C@H](NP(=O)(OC[C@H]1O[C@@H](n2ccc(N)nc2=O)[C@](C)(N)C1O)Oc1ccccc1)C(=O)OCC(C)(C)C (single isomer, unassigned) [Compound 58]
EC50 [3, 5]: 4.4 µM

C[C@H](NP(=O)(OC[C@H]1O[C@@H](n2ccc(N)nc2=O)[C@](C)(N)C1O)Oc1ccccc1)C(=O)OCC(C)(C)C (single isomer, unassigned) [Compound 59]
EC50 [3, 5]: 11 µM

CC(C)COC(=O)[C@H](C)NP(=O)(OC[C@H]1O[C@@H](n2ccc(N)nc2=O)[C@](C)(N)[C@@H]1O)Oc1ccccc1 (single isomer, unassigned) [Compound 64]
EC50 [3, 4]: 6.6 µM

CC(C)COC(=O)[C@H](C)NP(=O)(OC[C@H]1O[C@@H](n2ccc(=O)[nH]c2=O)[C@](C)(N)[C@@H]1O)Oc1ccccc1 (single isomer, unassigned) [Compound 67]
EC50 [3, 4]: 6.8 µM

C[C@@]1(N)[C@H](O)[C@@H](CO)O[C@H]1n1ccc(N)nc1=O [Compound 1]
EC50 [3, 5]: 100 µM

C[C@@]1(S(C)(=O)=O)[C@H](O)[C@@H](CO)O[C@H]1n1ccc(N)nc1=O [Compound 3]
EC50 [3]: > 100 µM

C[C@@]1(n2ccnn2)[C@H](O)[C@@H](CO)O[C@H]1n1ccc(N)nc1=O [Compound 4]
EC50 [3]: > 100 µM

COC(=O)[C@H](C)NP(=O)(OC[C@H]1O[C@@H](n2ccc(N)nc2=O)[C@](C)(n2ccnn2)[C@@H]1O)Oc1ccccc1 (stereo partly drawn) [Compound 5]
EC50 [3, 5]: 90 µM

C[C@@]1(Cl)[C@H](O)[C@@H](CO)O[C@H]1n1ccc(N)nc1=O [Compound 6]
EC50 [3]: 10 µM

COC(=O)[C@H](C)NP(=O)(OC[C@H]1O[C@@H](n2ccc(N)nc2=O)[C@](C)(SC)[C@@H]1O)Oc1ccccc1 (stereo partly drawn) [Compound 7]
EC50 [3, 5]: 29 µM

COC(=O)[C@H](C)NP(=O)(OC[C@H]1O[C@@H](n2ccc(N)nc2=O)[C@](C)(Cl)[C@@H]1O)Oc1ccccc1 (stereo partly drawn) [Compound 8]
EC50 [3, 4]: 34 µM

CC(=O)N[C@]1(C)[C@H](O)[C@@H](CO)O[C@H]1n1ccc(N)nc1=O [Compound 9]
EC50 [3]: 100 µM

CCOc1nc(N)nc2c1ncn2[C@@H]1O[C@H](CO)[C@@H](O)[C@@]1(C)N [Compound 10]
EC50 [3]: 29 µM

CCOc1nc(N)nc2c1ncn2[C@@H]1O[C@H](COP(=O)(N[C@@H](C)C(=O)OC)Oc2ccccc2)C(O)[C@@]1(C)NC(N)=O (stereo partly drawn) [Compound 12]
EC50 [3, 4]: > 100 µM

COc1nc(N)nc2c1ncn2[C@@H]1O[C@H](CO)[C@@H](O)[C@@]1(C)N [Compound 15]
EC50 [3, 4]: > 100 µM

C[C@@]1(N)[C@H](O)[C@@H](CO)O[C@H]1n1ccc(=O)[nH]c1=O [Compound 16]
EC50 [3, 4]: > 100 µM

C[C@@]1(N)[C@H](O)[C@@H](CO)O[C@H]1n1cnc2c(N3CCC3)nc(N)nc21 [Compound 17]
EC50 [3, 4]: > 100 µM

CCOc1nc(N)nc2c1ncn2[C@@H]1O[C@H](COP(=O)(N[C@@H](C)C(=O)OC)Oc2ccccc2)C(O)[C@@]1(C)N (stereo partly drawn) [Compound 20]
EC50 [3, 5]: 2.5 µM

CC(C)OC(=O)[C@H](C)NP(=O)(OC[C@H]1O[C@@H](n2ccc(=O)[nH]c2=O)[C@](C)(N)[C@@H]1O)Oc1ccccc1 (stereo partly drawn) [Compound 24]
EC50 [3, 5]: 5 µM

CCOc1nc(N)nc2c1ncn2[C@@H]1O[C@H](COP(=O)(N[C@@H](C)C(=O)OC)Oc2ccccc2)[C@@H](O)[C@@]1(C)SC (stereo partly drawn) [Compound 43]
EC50 [3, 4]: 38 µM

CCCCOC(=O)[C@H](C)NP(=O)(OC[C@H]1O[C@@H](n2cnc3c(OCC)nc(N)nc32)[C@](C)(SC)[C@@H]1O)Oc1cccc2ccccc12 (stereo partly drawn) [Compound 44]
EC50 [3, 4]: 24 µM

CC(C)OP1(=O)OC[C@H]2O[C@@H](n3ccc(N)nc3=O)[C@](C)(N)[C@@H]2O1 (stereo partly drawn) [Compound 78]
EC50 [3, 4]: 30 µM

C[C@@]1(N)[C@@H]2OP(=O)(OC3CCC3)OC[C@H]2O[C@H]1n1ccc(N)nc1=O (stereo partly drawn) [Compound 79]
EC50 [3, 4]: 2.8 µM

C[C@@]1(C(N)=O)[C@H](O)[C@@H](CO)O[C@H]1n1ccc(N)nc1=O [Compound 85]
EC50 [3, 5]: 45 µM

COc1nc(N)nc2c1ncn2[C@@H]1O[C@@H]2COP(=O)(OC(C)C)O[C@H]2[C@@]1(C)N (stereo partly drawn) [Compound 98]
EC50 [3, 5]: 43 µM

CC(C)OC(=O)[C@H](C)NP(=O)(OC[C@H]1O[C@@H](n2ccc(=O)[nH]c2=O)[C@](C)(N)[C@@H]1O)Oc1ccccc1 (stereo partly drawn) [drawing 239]
EC50 [1]: 3.1 µM | Cytotoxicity [2]: >100 µM

COc1nc(N)nc2c1ncn2[C@@H]1O[C@@H]2COP(=O)(OC(C)C)O[C@H]2[C@@]1(C)N (stereo partly drawn) [drawing 240]
EC50 [1]: 43.7 µM | Cytotoxicity [2]: >100 µM

CCOc1nc(N)nc2c1ncn2[C@@H]1O[C@H](COP(=O)(N[C@@H](C)C(=O)OC)Oc2ccccc2)[C@@H](O)[C@@]1(C)SC (stereo partly drawn) [drawing 242]
EC50 [1]: 38 µM | Cytotoxicity [2]: >100 µM

CCOc1nc(N)nc2c1ncn2[C@@H]1O[C@H](COP(=O)(N[C@@H](C)C(=O)OC)Oc2ccccc2)C(O)[C@@]1(C)N (stereo partly drawn) [drawing 243]
EC50 [1]: 2.5 µM | Cytotoxicity [2]: >100 µM

C[C@@]1(N)[C@@H]2OP(=O)(OC3CCC3)OC[C@H]2O[C@H]1n1ccc(N)nc1=O (stereo partly drawn) [drawing 247]
EC50 [1]: 2.8 µM | Cytotoxicity [2]: >50 µM

CCOC(=O)[C@H](C)NP(=O)(OC[C@H]1O[C@@H](n2cnc3c(OC)nc(N)nc32)[C@](C)(N)[C@@H]1O)Oc1ccccc1 (stereo partly drawn) [drawing 248]
EC50 [1]: 0.1 µM | Cytotoxicity [2]: >100 µM

Reference: patent US9061041B2, “2′-substituted nucleoside derivatives and methods of use thereof for the treatment of viral diseases” (Merck Sharp & Dohme Corp., priority 2011, dated 2015)
